Data published in patent US7173010B2, “Orphanin FQ receptor” (Regents of the University of Michigan, priority 2003, dated 2007).
No end group written: not given here.

Legend:
[1] = molecular target: T1, Orphanin FQ receptor (OFQR) (Rattus norvegicus, UniProt P35370); experiment: Inhibition of [^125I] Y14-OFQ17 binding / specific OFQ binding in Cos-7 cells transfected with normal OFQR gene; conditions: Cos-7 cells transfected with OFQR gene; for IC50: read-out: IC50, concentration dependent inhibition of [^125I] Y14-OFQ17 binding
T1 construct: expressed in transfected cells; host or cells: Cos-7

[2] = test system: circular muscle strips of distal colon; experiment: Spontaneous contraction of circular muscle strips of distal colon from rats with postoperative ileus, in vitro; set-up: species or system rat; conditions: strips from rats with PI, 4 h after surgery
Protocol: In vitro and in vivo colonic motility studies were performed using a known rat model of PI. Rats equipped with a colonic cannula underwent a sham operation or laparotomy plus simple cecum manipulation. Circular muscle strips of distal colon were studied in vitro 4 h after surgery. Cecum manipulation reduced spontaneous colonic muscle contraction by 50% compared to sham operation. […] Similarly, OFQ (10^−7 mol/L) reversed the inhibitory effects; contraction increased 450±60% over basal. […] ATP in myenteric neurons increased 2.5-fold, as measured by quinacrine immunofluorescence. In response to electrical field stimulation, ATP release (luciferase assay) from colonic tissue after cecum manipulation was 50% more than after sham operation. In vivo measurement of colonic transit using carmine migration was performed 4 h after cecum manipulation. In sham-operated rats, carmine migrated 90.8±6.5% of the colon length in 2 h. Cecum manipulation slowed transit 68±5% compared to sham operation. OFQ dose-dependently reversed delayed colonic transit evoked by cecum manipulation (0.5 and 1 nmol/L OFQ improved transit to 76±4% and 94±3%). […] These changes contribute to delayed colonic transit. OFQ, a potent inhibitor of purinergic transmission, reversed PI in rats.

colonic contractions = experiment: Colonic contractions after infusion of peptide; type: in vivo
OFQ receptor = molecular target: T2, OFQ receptor (Rattus norvegicus, UniProt P35370); type: cell-based; conditions: Cos-7 cells transfected with OFQ receptor gene
T2 construct: in Cos-7 cells transfected with OFQ receptor gene; expressed in transfected cells; host or cells: Cos-7
Description: Orphanin FQ is a neuropeptide that structurally resembles an opioid peptide. […] While not being limited to any particular mechanism, the present invention contemplates that Orphanin FQ stimulates peristalsis and enhances colonic transit by inhibiting purinergic pathways in myenteric plexus. To delineate the molecular interactions between OFQR and its ligands, Cos-7 cells were transfected with normal or chimeric OFQR genes. […] The ability of Orphanin FQ and related peptides to inhibit cAMP production in Cos-7 cells was evaluated. […] Dynorphin encoding nucleic acids and gene products are known in the art, see for example, NM_024411, NM_133828, NM_174139, NM_018863, M10088, AH002816, K02268, K02267, Alo34562, U58500, and U38912.

colonic transit = experiment: Colonic transit (geometric center) after subcutaneous administration; type: in vivo

T1 sequence (P35370 whole entry): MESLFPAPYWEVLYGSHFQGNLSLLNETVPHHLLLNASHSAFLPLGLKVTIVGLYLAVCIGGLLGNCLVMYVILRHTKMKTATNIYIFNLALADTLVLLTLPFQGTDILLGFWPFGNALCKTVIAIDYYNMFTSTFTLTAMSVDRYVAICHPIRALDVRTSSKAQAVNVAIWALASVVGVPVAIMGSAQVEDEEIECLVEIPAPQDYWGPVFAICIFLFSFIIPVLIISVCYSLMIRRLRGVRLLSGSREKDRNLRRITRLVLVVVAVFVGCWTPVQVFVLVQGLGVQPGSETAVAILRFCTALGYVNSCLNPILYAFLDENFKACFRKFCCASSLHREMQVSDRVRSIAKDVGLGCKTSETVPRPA
T2 sequence (P35370 whole entry): as above

Compound: FGGFTGAKKSARKLANQ [R8K]
- IC50 [1]: 0.1 nM

Compound: Cc1ccc(C(=O)Nc2ccc(S(=O)(=O)O)c3cc(S(=O)(=O)O)cc(S(=O)(=O)O)c23)cc1NC(=O)c1cccc(NC(=O)Nc2cccc(C(=O)Nc3cc(C(=O)Nc4ccc(S(=O)(=O)O)c5cc(S(=O)(=O)O)cc(S(=O)(=O)O)c45)ccc3C)c2)c1 [Suramin]
- enhancement of spontaneous contraction over basal ([2]; 10^−4 mol/L): 210±15%

Compound: Orphanin FQ(1–12): Orphanin FQ fragment, amino acids 1–12 (FGGFTGARKSAR; Nociceptin; UniProt Q13519 130-141, looked up, fragment)
- potency relative to Orphanin FQ(1–17), times less potent (colonic contractions; in vivo): 100 times

Compound: Nc1c(S(=O)(=O)O)cc(Nc2ccc(Nc3nc(Cl)nc(Nc4cccc(S(=O)(=O)O)c4)n3)c(S(=O)(=O)O)c2)c2c1C(=O)c1ccccc1C2=O [reactive blue 2]
- enhancement of spontaneous contraction over basal ([2]; 3×10^−5 mol/L): 287±20%

Compound: Orphanin FQ(1–13): Orphanin FQ fragment, amino acids 1–13
- potency in stimulating contractions compared with full peptide Orphanin FQ(1–17) (colonic contractions; in vivo): same potency

Compound: FGGFTGARKSARCLANQ [K13C]
- IC50 [1]: 0.1 nM

Compound: Pertussis toxin
- effect on the inhibitory action of OFQ on cAMP production (OFQ receptor): reversed the inhibitory action of OFQ

Compound: substitution by tyrosine: Orphanin FQ with Phe in position 1 substituted by tyrosine (YGGFTGARKSARKLANQ; Nociceptin; UniProt Q13519 130-146, looked up, variant F1Y)
- Orphanin FQ activity of substituted analogues (colonic contractions; in vivo): no loss of activity

Compound: β endorphin 31: opioid peptide tested for effect on OFQ binding
- effect on OFQ binding [1]: no effect

Compound: FGGFTGARKSA [OFQ11]
- IC50 [1]: 5000 nM

Compound: Dyn A: Dynorphin A, peptide with structural homology to Orphanin FQ (YGGFLRRIRPKLKWDNQ; Dynorphin A(1-17); UniProt P01213 207-223, looked up)
- type of contractions induced (colonic contractions; infusion 100 nmol/kg/min): evoked non-migrating simultaneous contractions
- colonic transit, geometric center (colonic transit; 30 nmol/kg): 3.14±0.21
- colonic transit, geometric center (colonic transit; 100 nmol/kg): 2.42±0.17

Compound: replacement of Arg^8 by L-alanin: Orphanin FQ with Arg8 replaced by L-alanine (FGGFTGAAKSARKLANQ; Nociceptin; UniProt Q13519 130-146, looked up, variant R8A)
- Orphanin FQ activity of substituted analogues (colonic contractions; in vivo): complete loss of activity

Compound: PPADGS
- enhancement of spontaneous contraction over basal ([2]; 3×10^−5 mol/L): 5±4%

Compound: Dynorphin 17: Dynorphin peptide tested for effect on OFQ binding
- effect on OFQ binding [1]: no effect
